Assay results as given in publication PMC3867817 (Molecular cell, 2013).

Biological target: RagB-RagC heterodimer (RagB monitored) (Homo sapiens, UniProt Q5VZM2)
Experiment: GDP dissociation assay
Assay type: binding
Settings: GDP on wild-type RagB with Rag^X partner; not altered by FLCN-FNIP

Sequence of RagB-RagC heterodimer (RagB monitored) (Q5VZM2 whole entry): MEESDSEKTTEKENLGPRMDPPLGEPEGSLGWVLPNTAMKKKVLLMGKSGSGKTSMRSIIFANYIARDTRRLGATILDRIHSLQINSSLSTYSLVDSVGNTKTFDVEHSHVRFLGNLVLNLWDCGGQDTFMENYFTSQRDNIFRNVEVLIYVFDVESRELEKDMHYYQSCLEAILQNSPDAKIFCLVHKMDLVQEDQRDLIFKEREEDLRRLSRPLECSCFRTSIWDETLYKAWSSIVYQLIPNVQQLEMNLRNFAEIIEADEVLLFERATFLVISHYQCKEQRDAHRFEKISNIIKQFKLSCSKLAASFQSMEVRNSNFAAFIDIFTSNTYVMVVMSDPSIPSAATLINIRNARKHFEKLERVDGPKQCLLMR
Sequence of RagB-RagC heterodimer (RagB monitored) (Q9HB90 2-399 D181N partner): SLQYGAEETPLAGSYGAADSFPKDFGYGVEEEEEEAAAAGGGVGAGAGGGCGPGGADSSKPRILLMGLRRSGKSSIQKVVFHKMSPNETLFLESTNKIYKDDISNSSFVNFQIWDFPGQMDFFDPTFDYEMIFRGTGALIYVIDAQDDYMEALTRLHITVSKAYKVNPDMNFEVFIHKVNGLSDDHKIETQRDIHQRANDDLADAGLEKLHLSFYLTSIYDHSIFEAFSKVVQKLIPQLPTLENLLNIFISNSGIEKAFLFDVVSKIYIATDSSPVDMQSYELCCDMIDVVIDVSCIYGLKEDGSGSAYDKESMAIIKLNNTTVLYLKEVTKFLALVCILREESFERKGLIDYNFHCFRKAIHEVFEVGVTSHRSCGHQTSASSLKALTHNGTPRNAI

Structure (SMILES): Nc1nc2c(ncn2[C@@H]2O[C@H](COP(=O)(O)OP(=O)(O)O)[C@@H](O)[C@H]2O)c(=O)[nH]1 [GDP]
- GDP dissociation assay: did not stimulate or inhibit the dissociation of GDP from RagB or RagC
